Test results from patent publication US9415047B2, “Use of benzo five-membered nitrogen heterocyclic piperazine or piperidine derivatives” (Liaoning Emmy Biological Pharmaceutical Co., Ltd., priority 2012, dated 2016).

What was measured:
[1] = test system: AD constricted rabbit aorta; assay: Relaxing effects on vascular smooth muscle constricted by adrenaline hydrochloride (AD) in vitro; conditions: relaxation of rabbit aorta constricted by adrenaline (10^−5 mol/L), mean±SEM, n=5; for EC50: Oryctolagus cuniculus
How it was run: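 Rabbit aortic strips in K-H solution precontracted with adrenaline hydrochloride (10^−5 mol/L) after a reproducible second contraction; compounds added cumulatively over ranges from 1×10^−10 up to 1×10^−2 mol/L depending on the compound series. Relaxation expressed as % of maximal relaxation versus −log concentration, mean±SEM, n=5.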

[2] = test system: high kalium concentration constricted rabbit aorta; assay: Relaxing effects on vascular smooth muscle constricted by high kalium concentration in vitro; conditions: relaxation of rabbit aorta constricted by high kalium solution (K+ 60 mmol/L), mean±SEM, n=5; for EC50: Oryctolagus cuniculus
How it was run: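 Rabbit aortic rings pre-challenged with adrenaline (10^−5 mol/L), washed and re-equilibrated 60 min in K-H solution, then constricted with high-K+ solution; compounds added cumulatively over 1×10^−10–1×10^−2 mol/L depending on series. Relaxation expressed as % of maximal relaxation vs −log concentration; mean±SEM, n=5.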

[3] = test system: NA constricted rabbit aorta; assay: Relaxing effects on vascular smooth muscle constricted by noradrenaline (NA) in vitro; conditions: relaxation of rabbit aorta constricted by noradrenaline (10^−5 mol/L), mean±SEM, n=5; for EC50: Oryctolagus cuniculus
Procedure: Adrenaline hydrochloride (AD) (10^−5 mol/L) was added into a bath tube to induce constriction, when maximal constriction was achieved, the sample was completely flushed, K-H solution was changed for every 20 min. Contents in the tube was balanced for 60 min, when baseline recovered to be stable, noradrenaline bitartrate (NA) (10^−5 mol/L) was added to induce constriction. When the later maximal constriction response was basically consistent with the former one, the prepared compound solutions were subsequently added, including compound II-84 to II-123 solutions (1×10^−10-1×10^−2 mol/L), compound II-124 to II-157 solutions (1×10^−10-1×10^−3 mol/L), to record the waveforms. Relaxing percentage of the compound was used as Y axis, maximal relaxation response was 100%, negative logarithm of different concentration was used as X axis, to draw dose effect curve (expressed in mean±SEM ( ? ), n=5).

Compound `c1ccc2c(c1)nnn2CCCN1CCC(c2noc3ccccc23)CC1` [II-84, N-(3-(1H-benzotriazole-1-yl)propyl)-4-(3-benzisoxazolyl)piperidine] has an EC50 [1] of 0.589 µM, an EC50 [2] of 53.7 µM and an EC50 [3] of 0.676 µM.

In the case of `Cc1ccc2c(C3CCN(CCCn4nnc5ccccc54)CC3)noc2c1` [II-86, N-(3-(1H-benzotriazole-1-yl)propyl)-4-(3-(6-methylbenzisoxazolyl))piperidine], the “−logEC50” value [1] is reported as 5.45 ± 0.04, the “−logEC50” value [2] is reported as 4.09 ± 0.04 and the “−logEC50” value [3] is reported as 5.26 ± 0.04.

With `COc1ccc2c(C3CCN(CCCn4nnc5ccccc54)CC3)noc2c1` [II-87, N-(3-(1H-benzotriazole-1-yl)propyl)-4-(3-(6-methoxylbenzisoxazolyl))piperidine] the “−logEC50” value [1] was 5.34 ± 0.03, the “−logEC50” value [2] was 4.12 ± 0.03 and the “−logEC50” value [3] was 5.04 ± 0.03.

In the case of `Fc1ccc2c(C3CCN(CCCn4nnc5ccc(F)cc54)CC3)noc2c1` [II-88, N-(3-(6-fluoro-1H-benzotriazole-1-yl)propyl)-4-(3-(6-fluorobenzisoxazolyl))piperidine], the “−logEC50” value [1] is reported as 5.61 ± 0.05, the “−logEC50” value [2] is reported as 4.72 ± 0.05 and the “−logEC50” value [3] is reported as 5.73 ± 0.05.

In the case of `Fc1ccc2c(C3CCN(CCCn4nnc5ccc(Cl)cc54)CC3)noc2c1` [II-89, N-(3-(6-chloro-1H-benzotriazole-1-yl)propyl)-4-(3-(6-fluorobenzisoxazolyl))piperidine], the “−logEC50” value [1] is reported as 5.42 ± 0.04, the “−logEC50” value [2] is reported as 4.12 ± 0.04 and the “−logEC50” value [3] is reported as 5.22 ± 0.04.

In the case of `Cc1ccc2nnn(CCCN3CCC(c4noc5cc(F)ccc45)CC3)c2c1` [II-90, N-(3-(6-methyl-1H-benzotriazole-1-yl)propyl)-4-(3-(6-fluorobenzisoxazolyl))piperidine], the “−logEC50” value [1] is reported as 5.38 ± 0.03, the “−logEC50” value [2] is reported as 4.28 ± 0.03 and the EC50 [3] is reported as 4.47 µM.

With `COc1ccc2nnn(CCCN3CCC(c4noc5cc(F)ccc45)CC3)c2c1` [II-91, N-(3-(6-methoxyl-1H-benzotriazole-1-yl)propyl)-4-(3-(6-fluorobenzisoxazolyl))piperidine] the “−logEC50” value [1] was 5.23 ± 0.05, the “−logEC50” value [2] was 4.02 ± 0.05 and the EC50 [3] was 4.9 µM.

With `O=Cc1ccc2nnn(CCCN3CCC(c4noc5cc(F)ccc45)CC3)c2c1` [II-92, N-(3-(6-formoxyl-1H-benzotriazole-1-yl)propyl)-4-(3-(6-fluorobenzisoxazolyl))piperidine] the “−logEC50” value [1] was 5.56 ± 0.04, the “−logEC50” value [2] was 4.32 ± 0.04 and the EC50 [3] was 1.86 µM.

`COc1ccc2nnn(CCCN3CCC(c4noc5ccccc45)CC3)c2c1` [II-93, N-(3-(6-methoxylbenzotriazolyl)propyl)-4-(3-benzisoxazolyl)piperidine] was tested, and the “−logEC50” value [1] was 6.11 ± 0.07, the “−logEC50” value [2] was 4.11 ± 0.03 and the EC50 [3] was 0.851 µM.

In the case of `COc1ccc2c(C3CCN(CCCCn4nnc5ccc(C#N)cc54)CC3)noc2c1` [II-97, N-(4-(6-cyanobenzotriazolyl)butyl)-4-(3-(6-methoxylbenzisoxazolyl))piperidine], the “−logEC50” value [1] is reported as 5.23 ± 0.06, the “−logEC50” value [2] is reported as 3.23 ± 0.04 and the EC50 [3] is reported as 8.13 µM.

For `COc1ccc2nnn(OCCN3CCC(c4noc5cc(F)ccc45)CC3)c2c1` [II-98, N-(2-(6-methoxylbenzotriazolyl)ethoxyl)-4-(3-(6-fluorobenzisoxazolyl))piperidine], the EC50 [1] was 93.3 µM, the EC50 [2] was 295 µM and the EC50 [3] was 49 µM.

`Fc1ccc2c(C3CCN(CCOn4nnc5ccccc54)CC3)noc2c1` [II-99, N-(2-(1-benzotriazolyl)ethoxyl)-4-(3-(6-fluorobenzisoxazolyl))piperidine] showed an EC50 [1] of 55 µM, an EC50 [2] of 550 µM and an EC50 [3] of 91.2 µM.

For `Fc1ccc2c(C3CCN(CCCn4ncc5ccccc54)CC3)noc2c1` [II-103, N-(3-(1-benzopyrazol)propyl)-4-(3-(6-fluorobenzisoxazolyl))piperidine], the EC50 [1] was 6.17 µM, the EC50 [2] was 617 µM and the EC50 [3] was 7.76 µM.

Work on `N#Cc1ccc2cnn(CCCCN3CCC(c4noc5cc(F)ccc45)CC3)c2c1` [II-104, N-(4-(6-cyanobenzopyrazol)butyl)-4-(3-(6-fluorobenzisoxazolyl))piperidine] yielded an EC50 [1] of 9.55 µM, an EC50 [2] of 380 µM and an EC50 [3] of 9.55 µM.

`Clc1cccc(C2CCN(CCCCn3cnc4ccccc43)CC2)c1` [II-107, N-(4-(1H-benzimidazoyl-1-yl)butyl)-4-(3-chlorophenyl)piperidine] was tested, and the “−logEC50” value [1] was 5.03 ± 0.02, the “−logEC50” value [2] was 3.69 ± 0.02 and the EC50 [3] was 7.76 µM.

For `Clc1cccc(C2CCN(CCCCn3nnc4ccccc43)CC2)c1` [II-108, N-(4-(1H-benzotriazole-1-yl)butyl)-4-(3-chlorophenyl)piperidine], the “−logEC50” value [1] was 5.16 ± 0.03, the “−logEC50” value [2] was 3.82 ± 0.03 and the EC50 [3] was 5.37 µM.

With `FC(F)(F)c1cccc(C2CCN(CCCCn3cnc4ccccc43)CC2)c1` [II-109, N-(4-(1H-benzimidazoyl-1-yl)butyl)-4-(3-trifluoromethylphenyl)piperidine] the “−logEC50” value [1] was 6.21 ± 0.04, the “−logEC50” value [2] was 5.01 ± 0.04 and the EC50 [3] was 0.479 µM.

`FC(F)(F)c1cccc(C2CCN(CCCCn3nnc4ccccc43)CC2)c1` [II-110, N-(4-(1H-benzotriazole-1-yl)butyl)-4-(3-trifluoromethylphenyl)piperidine] was tested, and the “−logEC50” value [1] was 6.36 ± 0.03, the “−logEC50” value [2] was 5.12 ± 0.03 and the EC50 [3] was 0.355 µM.

`Fc1cccc(C2CCN(CCCCn3cnc4ccccc43)CC2)c1` [II-111, N-(4-(1H-benzimidazoyl-1-yl)butyl)-4-(3-fluorophenyl)piperidine] was tested, and the “−logEC50” value [1] was 4.89 ± 0.02, the “−logEC50” value [2] was 3.44 ± 0.02 and the EC50 [3] was 21.4 µM.

`COc1ccccc1C1CCN(CCCCn2cnc3ccccc32)CC1` [II-112, N-(4-(1H-benzimidazoyl-1-yl)butyl)-4-(2-methoxylphenyl)piperidine] was tested, and the “−logEC50” value [1] was 4.76 ± 0.03, the “−logEC50” value [2] was 3.38 ± 0.03 and the EC50 [3] was 28.2 µM.

In the case of `Fc1ccc2nnn(CCCCN3CCC(c4cccc(C(F)(F)F)c4)CC3)c2c1` [II-113, N-(4-(6-fluoro-1H-benzotriazole-1-yl)butyl)-4-(3-trifluoromethylphenyl)piperidine], the “−logEC50” value [1] is reported as 5.31 ± 0.04, the “−logEC50” value [2] is reported as 4.03 ± 0.04 and the EC50 [3] is reported as 6.17 µM.

`COc1ccc2nnn(CCCCN3CCC(c4cccc(C(F)(F)F)c4)CC3)c2c1` [II-114, N-(4-(6-methoxyl-1H-benzotriazole-1-yl)butyl)-4-(3-trifluoromethylphenyl)piperidine] was tested, and the “−logEC50” value [1] was 4.86 ± 0.03, the “−logEC50” value [2] was 3.56 ± 0.03 and the EC50 [3] was 17 µM.

In the case of `N#Cc1ccc2nnn(CCCCN3CCC(c4cccc(C(F)(F)F)c4)CC3)c2c1` [II-115, N-(4-(6-cyano-1H-benzotriazole-1-yl)butyl)-4-(3-trifluoromethylphenyl)piperidine], the “−logEC50” value [1] is reported as 4.79 ± 0.02, the “−logEC50” value [2] is reported as 3.23 ± 0.02 and the EC50 [3] is reported as 29.5 µM.

For `FC(F)(F)c1cccc(C2CCN(CCCOn3nnc4ccccc43)CC2)c1` [II-116, N-(4-(1H-benzotriazole-1-yl)propoxyl)-4-(3-trifluoromethylphenyl)piperidine], the “−logEC50” value [1] was 5.56 ± 0.05, the “−logEC50” value [2] was 4.22 ± 0.05 and the EC50 [3] was 4.37 µM.

`FC(F)(F)c1cccc(C2CCN(CCCOn3cnc4ccccc43)CC2)c1` [II-117, N-(4-(1H-benzimidazole-1-yl)propoxyl)-4-(3-trifluoromethylphenyl)piperidine] was tested, and the “−logEC50” value [1] was 5.31 ± 0.06, the “−logEC50” value [2] was 4.17 ± 0.06 and the EC50 [3] was 7.08 µM.

For `c1coc(C2CCN(CCCCn3cnc4ccccc43)CC2)c1` [II-118, N-(4-(1H-benzimidazoyl-1-yl)butyl)-4-(2-furyl)piperidine], the “−logEC50” value [1] was 4.43 ± 0.05, the “−logEC50” value [2] was 3.53 ± 0.03 and the EC50 [3] was 58.9 µM.

In the case of `c1ccc2c(c1)ncn2CCCCN1CCC(c2ccncc2)CC1` [II-119, N-(4-(1H-benzimidazoyl-1-yl)butyl)-4-(4-pyridyl)piperidine], the “−logEC50” value [1] is reported as 4.86 ± 0.04, the “−logEC50” value [2] is reported as 3.26 ± 0.04 and the EC50 [3] is reported as 21.9 µM.

For `c1cnc(C2CCN(CCCCn3cnc4ccccc43)CC2)nc1` [II-120, N-(4-(1H-benzimidazoyl-1-yl)butyl)-4-(2-pyrimidinyl)piperidine], the EC50 [1] was 19.1 µM, the “−logEC50” value [2] was 3.32 ± 0.02 and the EC50 [3] was 30.2 µM.

With `c1ccc2c(c1)nnn2CCCCN1CCC(C2CCCCC2)CC1` [II-121, N-(4-(1H-benzotriazole-1-yl)butyl)-4-(4-cyclohexyl)piperidine] the EC50 [1] was 40.7 µM, the “−logEC50” value [2] was 3.14 ± 0.05 and the EC50 [3] was 36.3 µM.

With `c1ccc2c(C3CCN(CCCCn4nnc5ccccc54)CC3)cccc2c1` [II-122, N-(4-(1H-benzotriazole-1-yl)butyl)-4-(1-naphthyl)piperidine] the EC50 [1] was 60.3 µM, the “−logEC50” value [2] was 3.04 ± 0.03 and the EC50 [3] was 45.7 µM.

For `c1ccc2nc(C3CCN(CCCCn4nnc5ccccc54)CC3)cnc2c1` [II-123, N-(4-(1H-benzotriazole-1-yl)butyl)-4-(2-quinoxalinyl)piperidine], the EC50 [1] was 14.8 µM, the “−logEC50” value [2] was 3.13 ± 0.04 and the EC50 [3] was 29.5 µM.
